{"source": "patent US10098880B2", "about": "(CELLWORKS GROUP INC., priority 2014, dated 2018)", "key": {"[1]": {"conditions": "cited from earlier work"}, "[2]": {"target": "T1, HMG-CoA reductase (Homo sapiens, UniProt P04035)", "T1 sequence (P04035 1-888)": "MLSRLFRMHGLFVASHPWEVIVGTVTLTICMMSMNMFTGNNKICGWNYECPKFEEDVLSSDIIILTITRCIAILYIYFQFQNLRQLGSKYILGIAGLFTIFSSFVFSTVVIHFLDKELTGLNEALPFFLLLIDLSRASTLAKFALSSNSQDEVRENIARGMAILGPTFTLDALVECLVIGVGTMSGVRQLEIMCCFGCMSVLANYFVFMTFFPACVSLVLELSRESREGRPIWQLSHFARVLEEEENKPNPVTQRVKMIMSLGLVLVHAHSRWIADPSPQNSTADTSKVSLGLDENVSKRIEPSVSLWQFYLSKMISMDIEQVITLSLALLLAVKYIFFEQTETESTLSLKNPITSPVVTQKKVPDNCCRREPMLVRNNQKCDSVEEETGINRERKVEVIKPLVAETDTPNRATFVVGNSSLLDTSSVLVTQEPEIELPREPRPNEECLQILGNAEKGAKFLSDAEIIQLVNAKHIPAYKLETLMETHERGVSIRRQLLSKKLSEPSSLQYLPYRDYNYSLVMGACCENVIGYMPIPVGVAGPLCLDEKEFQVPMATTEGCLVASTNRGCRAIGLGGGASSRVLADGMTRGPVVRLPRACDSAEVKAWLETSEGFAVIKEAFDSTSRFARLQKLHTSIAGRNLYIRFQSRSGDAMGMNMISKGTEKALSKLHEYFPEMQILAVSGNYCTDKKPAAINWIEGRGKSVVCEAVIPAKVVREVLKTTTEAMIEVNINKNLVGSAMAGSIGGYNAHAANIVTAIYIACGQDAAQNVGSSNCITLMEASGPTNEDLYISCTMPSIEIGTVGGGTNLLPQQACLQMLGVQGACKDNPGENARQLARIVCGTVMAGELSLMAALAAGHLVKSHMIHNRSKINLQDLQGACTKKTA", "conditions": "in vitro; cited from earlier work"}, "[3]": {"conditions": "cited from earlier work", "remark": "listed apart in the source"}, "[4]": {"system": "U251 cell line (PTEN, TP53 and CDKN2A mutated)", "assay": "In-vitro relative growth assay (CellTiter 96 Aqueous One), U251 cell line", "assay_type": "cell-based, human", "conditions": "FIG. 4A: Nelfinavir 5 μM, Metformin 0.5 mM, Rosuvastatin 12.5 μM, individually or combined, about 71 hours", "procedure": "(§1) U251 cell line is procured from Sigma-Aldrich (Catalog number: 09063001). The U87 human cell line is procured from ATCC (American Type Culture Collection, Manassas, Va., ATCC® HTB-14TM). LN229 cell line is procured from ATCC (American Type Culture Collection, Manassas, Va., […]). […] 100 μl/well of the diluted sample is added to assay plate containing resuspended cells. […] The assay plate is incubated for about 71 hours followed by addition of about 20 μl of Promega Substrate CellTiter 96 Aqueous One Solution Reagent to each well. It is incubated at 37° C. The absorbance of the sample is read at about 490 nm."}, "[5]": {"system": "LN229 cell line (TP53 and CDKN2A mutated)", "assay": "In-vitro relative growth assay (CellTiter 96 Aqueous One), LN229 cell line", "assay_type": "cell-based, human", "conditions": "FIG. 4A: Nelfinavir 5 μM, Metformin 0.5 mM, Rosuvastatin 12.5 μM, individually or combined, about 71 hours", "procedure": "as §1"}, "[6]": {"system": "U87 cell line (PTEN and CDKN2A mutated)", "assay": "In-vitro relative growth assay (CellTiter 96 Aqueous One), U87 cell line", "assay_type": "cell-based, human", "conditions": "FIG. 4A: Nelfinavir 5 μM, Metformin 0.5 mM, Rosuvastatin 12.5 μM, individually or combined, about 71 hours", "procedure": "[table] U251 cell line is procured from Sigma-Aldrich (Catalog number: 09063001). The U87 human cell line is procured from ATCC (American Type Culture Collection, Manassas, Va., ATCC® HTB-14TM). LN229 cell line is procured from ATCC (American Type Culture Collection, Manassas, Va., […]). […] DMSO, Digitoxin and drugs (Nelfinavir, Metformin and Rosuvastatin individually and in combination) are serial diluted in an assay media. 100 μl/well of the diluted sample is added to assay plate containing resuspended cells. […] The assay plate is incubated for about 71 hours followed by addition of about 20 μl of Promega Substrate CellTiter 96 Aqueous One Solution Reagent to each well. It is incubated at 37° C. The absorbance of the sample is read at about 490 nm."}, "[7]": {"target": "AKT (Homo sapiens, UniProt P31749)", "sequence (P31749 whole entry)": "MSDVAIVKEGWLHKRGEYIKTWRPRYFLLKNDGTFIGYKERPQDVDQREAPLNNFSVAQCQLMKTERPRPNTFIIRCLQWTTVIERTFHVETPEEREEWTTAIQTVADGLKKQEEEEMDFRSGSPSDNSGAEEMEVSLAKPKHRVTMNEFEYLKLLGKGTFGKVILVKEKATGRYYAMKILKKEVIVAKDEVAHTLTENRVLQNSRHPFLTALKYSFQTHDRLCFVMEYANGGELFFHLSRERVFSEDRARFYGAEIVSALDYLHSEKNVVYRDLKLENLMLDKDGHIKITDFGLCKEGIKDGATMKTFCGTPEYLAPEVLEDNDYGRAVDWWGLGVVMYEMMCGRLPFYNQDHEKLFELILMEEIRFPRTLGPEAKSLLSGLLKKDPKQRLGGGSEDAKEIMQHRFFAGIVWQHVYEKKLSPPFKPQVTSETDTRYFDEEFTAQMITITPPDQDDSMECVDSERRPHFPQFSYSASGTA", "conditions": "reported, PMID 23454896; inhibition of AKT phosphorylation at Ser473; cited from earlier work"}, "[8]": {"conditions": "cited from earlier work", "remark": "listed apart in the source"}, "[9]": {"conditions": "oral 750 mg dose containing 14C-nelfinavir"}}}
{"smiles": "CN(C)C(=N)N=C(N)N", "note": "[Metformin, 1-carbamimidamido-N,N-dimethyl-methanimidamide]", "values": [{"measurement": "time of peak action", "setting": "[1]; after oral administration", "result": 3, "unit": "h"}, {"measurement": "Duration of action", "setting": "[1]; in vivo", "result": "8 to 12", "unit": "h"}, {"measurement": "time over which absorbed", "setting": "[1]; in vivo", "result": 6, "unit": "h"}, {"measurement": "drug eliminated in 24 hours", "setting": "[1]; those with healthy renal function", "result": "Approximately 90%"}]}
{"smiles": "CC(C)c1nc(NS(C)(=O)=O)nc(-c2ccc(F)cc2)c1/C=C/[C@@H](O)C[C@@H](O)CC(=O)O", "note": "[N-desmethylrosuvastatin]", "values": [{"measurement": "pharmacological activity relative to parent compound", "setting": "[2]", "result": "approximately 50%"}]}
{"smiles": "CC(C)c1nc(N(C)S(C)(=O)=O)nc(-c2ccc(F)cc2)c1/C=C/[C@@H](O)C[C@@H](O)CC(=O)O", "note": "[Rosuvastatin, (E,3R,5S)-7-[4-(4-fluorophenyl)-2-[methyl(methylsulfonyl)amino]-6-propan-2-ylpyrimidin-5-yl]-3,5-dihydroxyhept-6-enoic acid]", "values": [{"measurement": "total body clearance by the hepatic route", "setting": "[3]; after an intravenous dose", "result": 72, "unit": "%"}, {"measurement": "total body clearance via the renal route", "setting": "[3]; after an intravenous dose", "result": "approximately 28%"}, {"measurement": "excreted in the feces (rosuvastatin and its metabolites)", "setting": "[3]; following oral administration", "result": 90, "unit": "%"}, {"measurement": "Bioavailability", "setting": "[3]; in vivo", "result": "approximately 20%"}, {"measurement": "Half-life", "setting": "[3]; in vivo", "result": 19, "unit": "h"}, {"measurement": "excreted as metabolite", "setting": "[3]; in vivo", "result": "~10", "unit": "%"}, {"measurement": "increase of AUC by inhibitors of CYP2C9", "setting": "[3]; in vivo", "result": "less than 2 fold"}, {"measurement": "radiolabeled dose recovered as metabolite", "setting": "[3]; in vivo", "result": "approximately 10%"}, {"measurement": "share of the pharmacologic action accounted for by parent", "setting": "[3]; in vivo", "result": "greater than 90%"}, {"measurement": "reduction in relative growth", "setting": "[4]", "result": "do not show much efficacy"}, {"measurement": "reduction in relative growth", "setting": "[5]", "result": "do not show much efficacy"}, {"measurement": "reduction in relative growth", "setting": "[6]", "result": "do not show much efficacy"}]}
{"smiles": "Cc1c(O)cccc1C(=O)N[C@@H](CSc1ccccc1)[C@H](O)CN1C[C@H]2CCCC[C@H]2C[C@H]1C(=O)NC(C)(C)C", "note": "[Nelfinavir, (3S,4aS,8aS)-N-tert-butyl-2-[(2R,3R)-2-hydroxy-3-[(3-hydroxy-2-methylbenzoyl)amino]-4-phenylsulfanylbutyl]-3,4,4a,5,6,7,8,8a-octahydro-1H-isoquinoline-3-carboxamide]", "values": [{"measurement": "concentration causing AKT inhibition", "setting": "[7]", "result": 20, "unit": "µM"}, {"measurement": "predominant enzymes that metabolize nelfinavir", "setting": "[8]; in humans, hepatic CYP450", "result": "CYP3A and CYP2C19"}, {"measurement": "Half-life (terminal half-life in plasma)", "setting": "[8]; in vivo", "result": "3.5 to 5", "unit": "h"}, {"measurement": "dose recovered in the feces", "setting": "[8]; [9]", "result": 87, "unit": "%"}, {"measurement": "dose recovered in urine", "setting": "[8]; [9]", "result": "1-2%"}, {"measurement": "fecal radioactivity as oxidative metabolites", "setting": "[8]; [9]", "result": 78, "unit": "%"}, {"measurement": "fecal radioactivity as unchanged nelfinavir", "setting": "[8]; [9]", "result": 22, "unit": "%"}, {"measurement": "Absorption", "setting": "[8]; oral administration", "result": "Well absorbed"}, {"measurement": "reduction in relative growth", "setting": "[4]", "result": "do not show much efficacy"}, {"measurement": "reduction in relative growth", "setting": "[5]", "result": "do not show much efficacy"}, {"measurement": "reduction in relative growth", "setting": "[6]", "result": "do not show much efficacy"}]}
